Structures can show the parent of a compound that is named as a salt. Where two headings read alike, the source gives them in different places. One block for each molecule: values may come before it.
Assays:
[1] = 3-day immature rat uterine bioassay; conditions: s.c.
human recombinant ER-α = molecular target: T1, human recombinant ER-α (Homo sapiens, UniProt P03372); assay: Solid phase ER binding assay (3H-estradiol competition), ER-α; conditions: HCl salt; similar to estradiol
T1 sequence (P03372 1-595): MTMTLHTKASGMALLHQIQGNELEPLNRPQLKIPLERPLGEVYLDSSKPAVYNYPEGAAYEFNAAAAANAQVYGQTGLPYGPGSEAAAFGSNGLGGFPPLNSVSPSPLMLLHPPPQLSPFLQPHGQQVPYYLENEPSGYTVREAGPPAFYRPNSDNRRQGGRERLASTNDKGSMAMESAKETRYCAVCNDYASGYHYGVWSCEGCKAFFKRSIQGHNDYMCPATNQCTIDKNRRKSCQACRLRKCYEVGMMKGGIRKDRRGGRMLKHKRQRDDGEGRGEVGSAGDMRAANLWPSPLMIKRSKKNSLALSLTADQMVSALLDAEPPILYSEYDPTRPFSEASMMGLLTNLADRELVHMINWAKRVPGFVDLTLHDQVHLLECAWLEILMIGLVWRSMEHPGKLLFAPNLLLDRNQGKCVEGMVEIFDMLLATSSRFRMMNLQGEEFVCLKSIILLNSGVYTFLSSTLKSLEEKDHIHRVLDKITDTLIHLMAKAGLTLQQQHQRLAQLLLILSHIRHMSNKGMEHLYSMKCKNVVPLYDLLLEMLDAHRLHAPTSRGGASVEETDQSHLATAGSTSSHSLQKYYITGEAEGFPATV

IL-6 = assay: Human bone cell co-culture system, IL-6 production; type: cell-based
Protocol: The generation of osteoblastic cells from normal adult femoral travecular bone from patients without evidence of metabolic bone disease was carried out as previously described (Kung Sutherland et al., Osteoporosis International 5:334-343, 1995; Wong et al., J Bone Miner 5:803-813, 1990). Bone fragments were cleaned of adherent tissue and blood and cultured for 4 weeks in medium containing Ham's F12 supplemented with 28 mM HEPES, pH 7.4, 10% FCS, 1.1 mM CaCl2, 2 mM glutamine, and 1% antibiotic-antimycotic agent. Upon confluency, the cells were harvested and immortalized using a retroviral vector (pLXSN) containing the neomycin resistance gene and the human papillomaviral (HPV18) E6 and E7 concogenes (International Journal of Oncology 6:167-174, 1995). The immortalized osteoblastic cells were selected in medium containing G418 (600 μg/ml).
The human U937 moncytic cell line (cloned from the commercially available cells by serial dilution) was maintained in RPMI 1640 medium containing 10% FCS and 1% antibiotic-antimycotic agent.
The co-culture system was established as follows. Human osteoblastic cells were plated in 96-well dishes at a density of 5×10^3 cells/well. U937 cells in RPMI medium (5×10^4 cells/well) were layered over the osteoblasts. The formation of osteoclast-like cells was induced with 100 nM PMA. […]

[2] = 28-day uterine bioassay in ovariectomized rats; conditions: rat, in vivo
Protocol: All three componds were administered daily by s.c. injection. Estrogen prevented the uterine weight loss caused by ovariectomy by increasing the uterine weight by 550%. […] Raloxifene.HCl caused about a 70% increase in uterine weight which has been previously reported (Grese et al., supra; Ashby et al., supra). […] Thus, this compound has significant potential for the prevention and/or treatment of cancer and osteoporosis, as well as cardiovascular diseases and neurodegenerative diseases such as Alzheimer's disease.

human recombinant ER-β = human recombinant ER-β (Homo sapiens, UniProt Q92731); assay: Solid phase ER binding assay (3H-estradiol competition), ER-β
GM-CSF = assay: Human bone cell co-culture system, GM-CSF production; type: cell-based; conditions: co-culture system of Example 8
Protocol: The co-culture system was established as follows. Human osteoblastic cells were plated in 96-well dishes at a density of 5×10^3 cells/well. U937 cells in RPMI medium (5×10^4 cells/well) were layered over the osteoblasts. The formation of osteoclast-like cells was induced with 100 nM PMA. To determine the effects of compounds or the neutralizing antibodies to IL-6 (Sigma) and GM-CSF (Pharmingen) on the formation of osteoclast-like cells, the compounds or the antibodies were added 30 minutes prior to the addition of PMA. The cultures were stopped after 96 hrs and processed for histochemical or immunohistochemical analyses.

Sequence of human recombinant ER-β (Q92731 whole entry): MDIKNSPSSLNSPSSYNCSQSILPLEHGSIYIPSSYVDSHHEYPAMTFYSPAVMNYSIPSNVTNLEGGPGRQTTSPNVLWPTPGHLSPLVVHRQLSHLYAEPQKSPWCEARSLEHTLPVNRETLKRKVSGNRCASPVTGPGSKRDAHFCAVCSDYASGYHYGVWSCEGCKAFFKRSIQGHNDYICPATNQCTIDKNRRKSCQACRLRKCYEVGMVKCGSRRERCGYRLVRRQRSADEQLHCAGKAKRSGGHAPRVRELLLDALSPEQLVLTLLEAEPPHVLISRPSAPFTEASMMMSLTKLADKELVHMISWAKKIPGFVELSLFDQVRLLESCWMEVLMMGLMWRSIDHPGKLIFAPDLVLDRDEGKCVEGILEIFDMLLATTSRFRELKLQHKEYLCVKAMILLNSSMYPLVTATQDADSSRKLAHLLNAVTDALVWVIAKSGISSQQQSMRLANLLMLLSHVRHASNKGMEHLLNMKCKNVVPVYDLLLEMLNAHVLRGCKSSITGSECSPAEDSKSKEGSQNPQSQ

Structure (SMILES): O=c1oc2cc(O)ccc2c(Cc2ccc(OCCN3CCCCC3)cc2)c1-c1ccccc1 (as salt: HCl) [Compound No. 1, 3-Phenyl-4-[4-(2-{piperidin-1-yl})ethoxy]-benzyl-7-hydroxycoumarin]
- melting point: 160 to 161 °C

Structure (SMILES): O=c1oc2cc(O)ccc2c(Cc2ccc(OCCN3CCCCC3)cc2)c1-c1ccccc1 [Compound No. 1, 3-Phenyl-4-[4-(2-{piperidin-1-yl})ethoxy]-benzyl-7-hydroxycoumarin]
- increase in uterine weight [1]: ~30%
- shape of dose response, uterine weight [1]: bell-shaped dose response
- binding affinity to ER-α (in words) (human recombinant ER-α): high affinity
- IC50 (IL-6; U-937, human osteoblast/U937 co-culture, PMA induced, read-out: IC50 with respect to IL-6): 10 nM
- increase in uterine weight ([2]; female, sc, 28 day): ~40%
- uterine liability [2]: does not exhibit significant uterine liability
- binding affinity to ER-β (in words) (human recombinant ER-β; HCl salt, similar to estradiol): high affinity
- Ki (human recombinant ER-β; competition with 30 nM 3H-estradiol, room temperature, 1 hour, average of at least 3 experiments, read-out: Solid Phase ER Binding Ki, ER-β): 7.3 nM

Structure (SMILES): C[C@]12CC[C@@H]3c4ccc(O)cc4CC[C@H]3[C@@H]1CC[C@@H]2O [Estradiol, 17β-estradiol]
- effect on production of GM-CSF (GM-CSF): reduced the production of GM-CSF
- increase in uterine weight [1]: 4.5 fold
- effect on production of IL-6 (IL-6; co-culture system of Example 8): suppress the production of IL-6

- melting point: 171 to 172 °C
Structure (SMILES): COc1ccc2c(Cc3ccc(OCCN4CCCCC4)cc3)c(-c3ccccc3)c(=O)oc2c1 [Example 4, 3-Phenyl-4-[4-(2-{piperin-1-yl})ethoxy]-benzyl-7-methoxycoumarin]

- Ki (human recombinant ER-β; ER binding assay of Example 14, read-out: ER Binding Assay ER-β (Ki)): > 10000 nM
Structure (SMILES): CCN(CC)CCOc1ccc(-c2c(-c3ccccc3)c(=O)oc3ccccc23)cc1 [L-20, reference compound]

- shape of dose response, uterine weight [1]: bell-shaped dose response
- increase in uterine weight ([1]; 1 mg/kg dose): up to 50%
Structure (SMILES): O=C(c1ccc(OCCN2CCCCC2)cc1)c1c(-c2ccc(O)cc2)sc2cc(O)ccc12 [Raloxifene HCl]

From patent publication US6372739B1, “Compounds and methods for modulation of estrogen receptors” (Signal Pharmaceuticals, Inc., priority 1998, dated 2002)
